Tests used:
CCRF-CEM = assay: NCI60 five-dose screen; assay type: cell-based; details: Homo sapiens, leukemia; for CC50: read-out: LC50 (the source's name)
HOP-92 = assay: NCI60 five-dose screen; assay type: cell-based; details: Homo sapiens, HOP-92, NSC lung cancer; for CC50: read-out: LC50 (the source's name)
NCI-H322M = assay: NCI60 five-dose screen; assay type: cell-based; details: Homo sapiens, NSC lung cancer; for CC50: read-out: LC50 (the source's name)
NCI-H522 = assay: NCI60 five-dose screen; assay type: cell-based; details: Homo sapiens, NCI-H522, NSC lung cancer; for CC50: read-out: LC50 (the source's name)
KM12 = assay: NCI60 five-dose screen; assay type: cell-based; details: Homo sapiens, KM12, colon cancer; for CC50: read-out: LC50 (the source's name)
SW-620 = assay: NCI60 five-dose screen; assay type: cell-based; details: Homo sapiens, SW-620, colon cancer; for CC50: read-out: LC50 (the source's name)
U251 = assay: NCI60 five-dose screen; assay type: cell-based; details: Homo sapiens, U-251, U251, CNS cancer; for CC50: read-out: LC50 (the source's name)
MALME-3M = assay: NCI60 five-dose screen; assay type: cell-based; details: Homo sapiens, melanoma; for CC50: read-out: LC50 (the source's name)
M14 = assay: NCI60 five-dose screen; assay type: cell-based; details: Homo sapiens, M14, melanoma; for CC50: read-out: LC50 (the source's name)
MDA-MB-435 = assay: NCI60 five-dose screen; assay type: cell-based, human; details: Homo sapiens; for CC50: MDA-MB-435, MDA-MB-435, melanoma, read-out: LC50 (the source's name); for GI50: MDA-MB-435, melanoma
UACC-257 = assay: NCI60 five-dose screen; assay type: cell-based; details: Homo sapiens, UACC-257, melanoma; for CC50: read-out: LC50 (the source's name)
OVCAR-4 = assay: NCI60 five-dose screen; assay type: cell-based; details: Homo sapiens, OVCAR-4, ovarian cancer; for CC50: read-out: LC50 (the source's name)
OVCAR-5 = assay: NCI60 five-dose screen; assay type: cell-based; details: Homo sapiens, OVCAR-5, ovarian cancer; for CC50: read-out: LC50 (the source's name)
786-0 = assay: NCI60 five-dose screen; assay type: cell-based; details: Homo sapiens, 786-0, renal cancer; for CC50: read-out: LC50 (the source's name)
A498 = assay: NCI60 five-dose screen; assay type: cell-based; details: Homo sapiens, A498, renal cancer; for CC50: read-out: LC50 (the source's name)
TK-10 = assay: NCI60 five-dose screen; assay type: cell-based; details: Homo sapiens, TK-10, renal cancer; for CC50: read-out: LC50 (the source's name)
DU-145 = assay: NCI60 five-dose screen; assay type: cell-based; details: Homo sapiens, DU-145, prostate cancer; for CC50: read-out: LC50 (the source's name)
HS 578T = assay: NCI60 five-dose screen; assay type: cell-based; details: Homo sapiens, breast cancer; for CC50: read-out: LC50 (the source's name)
Human CYP19 (aromatase) = target: T1, Human CYP19 (aromatase) (Homo sapiens, UniProt P11511); assay: Aromatase inhibition assay (DBF fluorometric substrate); assay type: biochemical; details: active defined as IC50 < 12.5 µM
T1 construct: purchased GENTEST, Woburn, MA 456260; host or cells: baculovirus/insect cells
T1 sequence (P11511 1-503): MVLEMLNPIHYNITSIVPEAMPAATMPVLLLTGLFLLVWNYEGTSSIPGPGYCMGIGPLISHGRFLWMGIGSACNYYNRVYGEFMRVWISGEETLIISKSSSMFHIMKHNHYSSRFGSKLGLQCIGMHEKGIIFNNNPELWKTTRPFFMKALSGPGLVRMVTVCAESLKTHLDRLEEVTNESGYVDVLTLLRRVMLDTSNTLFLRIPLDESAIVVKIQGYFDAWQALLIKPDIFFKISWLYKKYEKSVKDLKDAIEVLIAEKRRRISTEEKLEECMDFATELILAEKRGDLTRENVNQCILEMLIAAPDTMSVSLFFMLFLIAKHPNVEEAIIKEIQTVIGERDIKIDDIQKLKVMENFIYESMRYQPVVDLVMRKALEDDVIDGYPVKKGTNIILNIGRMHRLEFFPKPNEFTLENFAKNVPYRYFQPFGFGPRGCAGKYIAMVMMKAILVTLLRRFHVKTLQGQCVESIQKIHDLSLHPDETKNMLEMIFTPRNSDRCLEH
Procedure: Aromatase enzyme was purchased from GENTEST, Woburn, MA01801, USA (Supersom human CYP19+oxidoreductase, baculovirus/insect cell-expressed; Product No. 456260). The aromatase inhibitory activity was performed using Human CYP19 enzymes and DBF as a fluorometric substrate as described by Stresser, et al.[41] with minor modifications. The mixture, containing 100 µL of cofactor/serial dilution buffer was pre-incubated in 37 °C for 10 min. […] After incubation at 37 °C for 30 min, the reaction was stopped by addition of 50 µL of 2.2 M NaOH. Fluorescence signal was monitored using an excitation wavelength of 490 nm and emission wavelength of 530 nm.

[1] = tested on: T47D breast cancer cell line; assay: Cytotoxicity MTT assay, T47D; assay type: cell-based, human; details: for activity against T47D in two-dose screen: 10 µM and 50 µM
Procedure: (§1) T47D (ATCC HTB-133) was purchased from Biomedia (Thailand) Co., LTD. L929 (ATCC CCL-1) was received as a gift from Prof. Tanapat Palaga, Department of Microbiology, Faculty of Science, Chulalongkorn University, Bangkok, Thailand. The cells were cultured in Dulbecco's Modified Eagle's Medium (DMEM; Gibco) supplemented with 10% fetal bovine serum (FBS; HyClone), 100 U mL^−1 penicillin and 100 µg mL^−1 streptomycin (Gibco) at 37 °C with 5% CO2.
(§2) The antiproliferative activity was determined by MTT assay. Briefly, the cells were plated into a 96-well microplate at the density of 10 000 cells per well. The cells were allowed to grow overnight before treated with the solutions of compounds in culture medium at the designated concentrations for 48 hours. The medium was then replaced with MTT solution (0.5 mg mL^−1 MTT in culture medium) and incubated for 3 hours. A 100 µL of DMSO was used to dissolve the produced formazan. Absorbance at 570 nm was then measured using a microplate reader (Varioskan™ LUX multimode microplate reader, Thermo Scientific™). Percent viability was calculated relative to the vehicle control (DMSO).

[2] = tested on: L929 normal mouse fibroblast cell line; assay: Cytotoxicity MTT assay, L929; assay type: cell-based; details: 50 µM single concentration
Procedure: as §1, §2

SMILES	GI50 (CCRF-CEM)	CC50 (CCRF-CEM)	GI50 (HOP-92)	CC50 (HOP-92)	GI50 (NCI-H322M)	CC50 (NCI-H322M)	GI50 (NCI-H522)	CC50 (NCI-H522)	GI50 (KM12)	CC50 (KM12)	GI50 (SW-620)	CC50 (SW-620)	GI50 (U251)	CC50 (U251)	GI50 (MALME-3M)	CC50 (MALME-3M)	GI50 (M14)	CC50 (M14)	CC50 (MDA-MB-435)	GI50 (MDA-MB-435)	further results
O=C(N/N=C/c1ccc([N+](=O)[O-])[nH]1)c1[nH]c2ccc(Br)cc2c1-c1ccccc1 [Derivative 3p, (E)-5-Bromo-N′-((5-nitro-1H-pyrrol-2-yl)methylene)-3-phenyl-1H-indole-2-carbohydrazide]	382 nM	> 100 µM	1790 nM	47.3 µM	11 µM	53.3 µM	588 nM	19.8 µM	1170 nM	34.2 µM	249 nM	48.4 µM	987 nM	39.2 µM	3.23 µM	56.2 µM	652 nM	37 µM	29.8 µM	253 nM	GI50 (UACC-257): 3.12 µM; CC50 (UACC-257): 48.2 µM; GI50 (OVCAR-4): 679 nM; CC50 (OVCAR-4): 35.9 µM; GI50 (OVCAR-5): 2.87 µM; CC50 (OVCAR-5): 40.9 µM; GI50 (786-0): 0.803 µM; CC50 (786-0): 41.4 µM; GI50 (A498): 2.6 µM; CC50 (A498): 43.7 µM; GI50 (TK-10): 12.2 µM; CC50 (TK-10): 53.8 µM; GI50 (DU-145): 1840 nM; CC50 (DU-145): 32.5 µM; GI50 (HS 578T): 270 nM; CC50 (HS 578T): 94.3 µM; IC50 (Human CYP19 (aromatase)): 1400 ± 300 nM; activity against T47D in two-dose screen [1]: weak activity
O=C(N/N=C/c1cc([N+](=O)[O-])c[nH]1)c1[nH]c2ccc(Br)cc2c1-c1ccccc1 [Derivative 3q, (E)-5-Bromo-N′-((4-nitro-1H-pyrrol-2-yl)methylene)-3-phenyl-1H-indole-2-carbohydrazide]	799 nM	> 100 µM	11600 nM	> 100 µM	46.4 µM	> 100 µM	722 nM	> 100 µM	1390 nM	> 100 µM	380 nM	> 100 µM	574 nM	66.8 µM	0.83 µM	> 100 µM	574 nM	> 100 µM	8.78 µM	226 nM	GI50 (UACC-257): 2.58 µM; CC50 (UACC-257): > 100 µM; GI50 (OVCAR-4): 1060 nM; CC50 (OVCAR-4): > 100 µM; GI50 (OVCAR-5): 5.37 µM; CC50 (OVCAR-5): > 100 µM; GI50 (786-0): 2.21 µM; CC50 (786-0): > 100 µM; GI50 (A498): 10.7 µM; CC50 (A498): > 100 µM; GI50 (TK-10): 76 µM; CC50 (TK-10): > 100 µM; GI50 (DU-145): 3870 nM; CC50 (DU-145): > 100 µM; GI50 (HS 578T): 486 nM; CC50 (HS 578T): > 100 µM; IC50 (Human CYP19 (aromatase)): > 12500 nM; aromatase inhibition (Human CYP19 (aromatase)): inactive against aromatase; activity against T47D in two-dose screen [1]: weak activity
O=C(N/N=C/c1cc[nH]c1)c1[nH]c2ccc(Br)cc2c1-c1ccccc1 [Derivative 3b, (E)-N′-((1H-Pyrrol-3-yl)methylene)-5-bromo-3-phenyl-1H-indole-2-carbohydrazide]	821 nM	> 100 µM	1870 nM	50.3 µM	2.38 µM	37.2 µM	925 nM	24 µM	996 nM	37.8 µM	548 nM	49.4 µM	2080 nM	40.8 µM	3.46 µM	48.3 µM	1580 nM	45.8 µM	15.8 µM	463 nM	GI50 (UACC-257): 8.22 µM; CC50 (UACC-257): 47.8 µM; GI50 (OVCAR-4): 4820 nM; CC50 (OVCAR-4): 45.2 µM; GI50 (OVCAR-5): 1.74 µM; CC50 (OVCAR-5): 38.5 µM; GI50 (786-0): 5.46 µM; CC50 (786-0): 77.2 µM; GI50 (A498): 12.7 µM; CC50 (A498): 54.6 µM; GI50 (TK-10): 11.1 µM; CC50 (TK-10): 58 µM; GI50 (DU-145): 1950 nM; CC50 (DU-145): 34.7 µM; GI50 (HS 578T): 1310 nM; CC50 (HS 578T): > 100 µM; IC50 (Human CYP19 (aromatase)): 11000 ± 1300 nM; activity against T47D in two-dose screen [1]: weak activity
CCOC(=O)c1ccc(/C=N/NC(=O)c2[nH]c3ccc(Br)cc3c2-c2ccccc2)[nH]1 [Derivative 3i, Ethyl (E)-5-((2-(5-bromo-3-phenyl-1H-indole-2-carbonyl)hydrazono)methyl)-1H-pyrrole-2-carboxylate]	3040 nM	> 100 µM	2330 nM	> 100 µM	3.3 µM	> 100 µM	460 nM	82.2 µM	2220 nM	38 µM	3930 nM	53.6 µM	2820 nM	39.4 µM	3.83 µM	54.8 µM	2730 nM	71.9 µM	27.6 µM	464 nM	GI50 (UACC-257): 2.97 µM; CC50 (UACC-257): 87.4 µM; GI50 (OVCAR-4): 4260 nM; CC50 (OVCAR-4): > 100 µM; GI50 (OVCAR-5): 3.43 µM; CC50 (OVCAR-5): 38 µM; GI50 (786-0): 4.48 µM; CC50 (786-0): > 100 µM; GI50 (A498): 10.5 µM; CC50 (A498): 55.2 µM; GI50 (TK-10): 6.92 µM; CC50 (TK-10): > 100 µM; GI50 (DU-145): 3320 nM; CC50 (DU-145): 38.7 µM; GI50 (HS 578T): 1210 nM; CC50 (HS 578T): > 100 µM; IC50 (Human CYP19 (aromatase)): 2600 ± 800 nM; IC50 ([1]; Homo sapiens, T47D, MTT, 48 hours): 11.8 ± 1.4 µM; L929 cell survival [2]: > 80%; L929 toxicity at single concentration [2]: — ^c (No toxicity observed at 50 µM single concentration (>80% cell survival).)
